From ChEMBL document CHEMBL1126045, “Alanine series of ovine corticotropin releasing factor (oCRF): a structure-activity relationship study” (J Med Chem, 1992)

Tests used:
Pituitary gland cell [1] = assay: In vitro ability of the compound (peptide) to stimulate ACTH release by rat anterior pituitary cells in relative to Ovine corticotropin releasing factor (oCRF) in experiment 2; format: cell-based; set-up: unit not given here
Pituitary gland cell [2] = assay: In vitro ability of the compound (peptide) to stimulate ACTH release by rat anterior pituitary cells in relative to Ovine corticotropin releasing factor (oCRF) in experiment 1; format: cell-based; set-up: unit not given here

## CC[C@H](C)[C@H](NC(=O)[C@H](CC(=O)O)NC(=O)[C@H](CC(C)C)NC(=O)[C@H](CC(C)C)NC(=O)[C@H](CCCCN)NC(=O)[C@H](CCCN=C(N)N)NC(=O)[C@H](CC(N)=O)NC(=O)[C@H](CO)NC(=O)[C@H](Cc1c[nH]cn1)NC(=O)[C@H](C)NC(=O)[C@H](CCC(N)=O)NC(=O)[C@H](CCC(N)=O)NC(=O)[C@H](C)NC(=O)[C@H](CC(C)C)NC(=O)[C@H](CCC(N)=O)NC(=O)[C@H](CC(=O)O)NC(=O)[C@H](C)NC(=O)[C@H](CCCCN)NC(=O)[C@@H](NC(=O)[C@H](CCSC)NC(=O)[C@H](CCC(=O)O)NC(=O)[C@H](CC(C)C)NC(=O)[C@@H](NC(=O)[C@H](CCC(=O)O)NC(=O)[C@H](CCCN=C(N)N)NC(=O)[C@H](CC(C)C)NC(=O)[C@H](CC(C)C)NC(=O)[C@H](Cc1c[nH]cn1)NC(=O)[C@H](Cc1ccccc1)NC(=O)[C@@H](NC(=O)[C@H](CC(C)C)NC(=O)[C@H](CC(=O)O)NC(=O)[C@H](C)NC(=O)[C@H](CO)NC(=O)[C@@H](NC(=O)[C@@H]1CCCN1C(=O)[C@@H]1CCCN1C(=O)[C@H](CCC(=O)O)NC(=O)[C@H](CCC(N)=O)NC(=O)[C@@H](N)CO)[C@@H](C)CC)[C@@H](C)O)C(C)C)[C@@H](C)O)C(=O)N[C@@H](C)C(N)=O
Pituitary gland cell [1]
  Relative potency: 0.005
Pituitary gland cell [2]
  Relative potency: 0.03

## CC[C@H](C)[C@H](NC(=O)[C@H](CC(=O)O)NC(=O)[C@H](CC(C)C)NC(=O)[C@H](CC(C)C)NC(=O)[C@H](CCCCN)NC(=O)[C@H](CCCN=C(N)N)NC(=O)[C@H](CC(N)=O)NC(=O)[C@H](CO)NC(=O)[C@H](Cc1c[nH]cn1)NC(=O)[C@H](C)NC(=O)[C@H](CCC(N)=O)NC(=O)[C@H](CCC(N)=O)NC(=O)[C@H](C)NC(=O)[C@H](CC(C)C)NC(=O)[C@H](CCC(N)=O)NC(=O)[C@H](CC(=O)O)NC(=O)[C@H](C)NC(=O)[C@H](CCCCN)NC(=O)[C@@H](NC(=O)[C@H](CCSC)NC(=O)[C@H](CCC(=O)O)NC(=O)[C@H](CC(C)C)NC(=O)[C@@H](NC(=O)[C@H](CCC(=O)O)NC(=O)[C@H](CCCN=C(N)N)NC(=O)[C@H](CC(C)C)NC(=O)[C@H](CC(C)C)NC(=O)[C@H](Cc1c[nH]cn1)NC(=O)[C@H](Cc1ccccc1)NC(=O)[C@@H](NC(=O)[C@H](CC(C)C)NC(=O)[C@H](CC(=O)O)NC(=O)[C@H](CC(C)C)NC(=O)[C@H](C)NC(=O)[C@@H](NC(=O)[C@@H]1CCCN1C(=O)[C@@H]1CCCN1C(=O)[C@H](CCC(=O)O)NC(=O)[C@H](CCC(N)=O)NC(=O)[C@@H](N)CO)[C@@H](C)CC)[C@@H](C)O)C(C)C)[C@@H](C)O)C(=O)N[C@@H](C)C(N)=O
Pituitary gland cell [1]
  Relative potency: 0.21
Pituitary gland cell [2]
  Relative potency: 0.16

## H-SQEPPISLDLTFHALREVLEMTKADQLAQQAHSNRKLLDIA-NH2
Pituitary gland cell [1]
  Relative potency: 0.001
Pituitary gland cell [2]
  Relative potency: 0.001

## H-SQEPPISLDLTFHLLREVLAMTKADQLAQQAHSNRKLLDIA-NH2
Pituitary gland cell [1]
  Relative potency: 1.6
Pituitary gland cell [2]
  Relative potency: 2.8

## H-SQEPPISLDLTFHLLREVLEMTKADQAAQQAHSNRKLLDIA-NH2
Pituitary gland cell [1]
  Relative potency: 0.38
Pituitary gland cell [2]
  Relative potency: 0.6

## H-SQEPPISLDLTFHLLREVLEMTKADQLAAQAHSNRKLLDIA-NH2
Pituitary gland cell [1]
  Relative potency: 1.4
Pituitary gland cell [2]
  Relative potency: 1

## H-SQEPPISLDLTFHLLREVLEMTKADQLAQQAHSNRKLADIA-NH2
Pituitary gland cell [1]
  Relative potency: 0.0002
Pituitary gland cell [2]
  Relative potency: 0.004
